Drawing on patent publication US9096624B2 (OSI Pharmaceuticals, LLC, priority 2009, dated 2015), this text covers IC50 for 21 compounds.

Experiment [1] has as its target T1, FAK (Homo sapiens, UniProt Q05397). Kind of experiment: biochemical.
For experiment [2], the target named is T1, FAK. Kind of experiment: Cell-based capture ELISA for inhibition of FAK autophosphorylation [pY397] in U87MG cells. The note with it: Mean FAK Cell Mechanistic IC50 + 50% mP U87MG, + 50% mouse plasma.

T1 sequence (Q05397 whole entry): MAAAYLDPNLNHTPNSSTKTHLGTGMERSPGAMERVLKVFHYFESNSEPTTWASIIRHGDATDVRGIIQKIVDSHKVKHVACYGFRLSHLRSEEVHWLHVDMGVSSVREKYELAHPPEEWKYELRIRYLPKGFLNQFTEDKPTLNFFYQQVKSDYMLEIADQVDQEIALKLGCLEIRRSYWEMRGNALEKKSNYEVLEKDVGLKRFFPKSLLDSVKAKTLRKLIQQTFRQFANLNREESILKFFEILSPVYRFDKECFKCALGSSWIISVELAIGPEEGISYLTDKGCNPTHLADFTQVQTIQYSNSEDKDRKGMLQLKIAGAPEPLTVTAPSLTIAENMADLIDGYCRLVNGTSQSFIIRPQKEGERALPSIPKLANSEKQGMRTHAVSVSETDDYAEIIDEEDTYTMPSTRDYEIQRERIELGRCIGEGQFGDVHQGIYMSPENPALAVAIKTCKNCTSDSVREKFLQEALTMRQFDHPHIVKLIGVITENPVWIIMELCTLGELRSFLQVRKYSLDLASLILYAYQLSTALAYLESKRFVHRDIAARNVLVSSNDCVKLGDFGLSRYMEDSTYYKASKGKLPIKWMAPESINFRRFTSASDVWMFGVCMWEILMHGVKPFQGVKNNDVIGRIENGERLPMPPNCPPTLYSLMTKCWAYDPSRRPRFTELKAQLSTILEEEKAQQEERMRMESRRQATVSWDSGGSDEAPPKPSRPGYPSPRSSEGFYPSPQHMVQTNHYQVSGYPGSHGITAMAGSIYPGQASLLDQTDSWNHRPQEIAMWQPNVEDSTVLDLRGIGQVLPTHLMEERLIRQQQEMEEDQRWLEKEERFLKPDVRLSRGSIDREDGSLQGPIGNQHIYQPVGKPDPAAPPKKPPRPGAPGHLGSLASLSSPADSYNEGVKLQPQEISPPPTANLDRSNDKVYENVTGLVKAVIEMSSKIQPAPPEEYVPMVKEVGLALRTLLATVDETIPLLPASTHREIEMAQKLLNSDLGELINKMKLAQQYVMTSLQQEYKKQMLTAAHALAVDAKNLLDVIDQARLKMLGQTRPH

`CCOP(=O)(Cc1ccc(Nc2ncc(C(F)(F)F)c(Nc3ccc([C@H]4CC[C@@H](C(=O)O)CC4)c4c3C(=O)N(C)C4)n2)cn1)OCC` [Example 267, cis-4-(7-{[2-({6-[(Diethoxyphosphoryl)methyl]pyridin-3-yl}amino)-5-(trifluoromethyl)pyrimidin-4-yl]amino}-2-methyl-1-oxo-2,3-dihydro-1H-isoindol-4-yl)cyclohexanecarboxylic acid]: the IC50 in experiment [1] is more than 10000 nM; in experiment [2], 1000 to 10000 nM.
Taken in the same sequence, the figures for `CCOP(=O)(Cc1ccc(Nc2ncc(C(F)(F)F)c(Nc3ccc([C@H]4CC[C@H](C(=O)O)CC4)c4c3C(=O)N(C)C4)n2)cn1)OCC` [Example 268, trans-4-(7-{[2-({6-[(diethoxyphosphoryl)methyl]pyridin-3-yl}amino)-5-(trifluoromethyl)pyrimidin-4-yl]amino}-2-methyl-1-oxo-2,3-dihydro-1H-isoindol-4-yl)cyclohexanecarboxylic acid] were 1000 to 10000 nM and 1000 to 10000 nM.
`CCOP(=O)(Cc1ccc(Nc2ncc(C(F)(F)F)c(Nc3ccc(C4CCN(C)CC4)c4c3C(=O)N(C)C4)n2)c(OC)c1)OCC` [Example 269, Diethyl (3-methoxy-4-{[4-{[2-methyl-7-(1-methylpiperidin-4-yl)-3-oxo-2,3-dihydro-1H-isoindol-4-yl]amino}-5-(trifluoromethyl)pyrimidin-2-yl]amino}benzyl)phosphonate]: the 50% inhibitory concentration (IC50) in experiment [1] and in experiment [2] was less than 1000 nM in each case.
On to `CCOP(=O)(Cc1ccc(Nc2ncc(C(F)(F)F)c(Nc3ccc(-c4ccc(C(=O)O)cc4)c4c3C(=O)N(C)C4)n2)c(OC)c1)OCC` [Example 270, 4-(7-{[2-({4-[(diethoxyphosphoryl)methyl]-2-methoxyphenyl}amino)-5-(trifluoromethyl)pyrimidin-4-yl]amino}-2-methyl-1-oxo-2,3-dihydro-1H-isoindol-4-yl)benzoic acid], for which the IC50 is less than 1000 nM in experiment [1] and 1000 to 10000 nM in experiment [2].
Regarding `CCOP(=O)(Cc1ccc(Nc2ncc(C(F)(F)F)c(Nc3ccc([C@H]4CC[C@@H](C(=O)NC)CC4)c4c3C(=O)N(C)C4)n2)c(OC)c1)OCC` [Example 271, Diethyl (3-methoxy-4-{[4-({2-methyl-7-[cis-4-(methylcarbamoyl)cyclohexyl]-3-oxo-2,3-dihydro-1H-isoindol-4-yl}amino)-5-(trifluoromethyl)pyrimidin-2-yl]amino}benzyl) phosphonate], the concentration for half-maximal inhibition (IC50) in experiment [1] and in experiment [2] was less than 1000 nM in each case.
Regarding `CCOP(=O)(Cc1ccc(Nc2ncc(C(F)(F)F)c(Nc3ccc([C@H]4CC[C@@H](C(N)=O)CC4)c4c3C(=O)N(C)C4)n2)c(OC)c1)OCC` [Example 272, Diethyl (4-{[4-{[7-(cis-4-carbamoylcyclohexyl)-2-methyl-3-oxo-2,3-dihydro-1H-isoindol-4-yl]amino}-5-(trifluoromethyl)pyrimidin-2-yl]amino}-3-methoxybenzyl)phosphonate], the half-inhibitory concentration (IC50) in experiment [1] and in experiment [2] was less than 1000 nM in each case.
Consider `CCOP(=O)(Cc1ccc(Nc2ncc(C(F)(F)F)c(Nc3ccc([C@H]4CC[C@@H](C(=O)N(C)C)CC4)c4c3C(=O)N(C)C4)n2)c(OC)c1)OCC` [Example 273, Diethyl (4-{[4-({7-[cis-4-(dimethylcarbamoyl)cyclohexyl]-2-methyl-3-oxo-2,3-dihydro-1H-isoindol-4-yl}amino)-5-(trifluoromethyl)pyrimidin-2-yl]amino}-3-methoxybenzyl)phosphonate], for which the IC50 in experiment [1] and in experiment [2] was less than 1000 nM in each case.
In the case of `CCOP(=O)(Cc1ccc(Nc2ncc(C(F)(F)F)c(Nc3ccc([C@H]4CC[C@@H](C(=O)OCCN(C)C)CC4)c4c3C(=O)N(C)C4)n2)c(OC)c1)OCC` [Example 274, 2-(Dimethylamino)ethyl cis-4-(7-{[2-({4-[(diethoxyphosphoryl)methyl]-2-methoxyphenyl}amino)-5-(trifluoromethyl)pyrimidin-4-yl]amino}-2-methyl-1-oxo-2,3-dihydro-1H-isoindol-4-yl)cyclohexanecarboxylate], the IC50 in experiment [1] and in experiment [2] was less than 1000 nM throughout.
For the compound `CCOP(=O)(Cc1ccc(Nc2ncc(C(F)(F)F)c(Nc3ccc([C@H]4CC[C@@H](C(=O)NO)CC4)c4c3C(=O)N(C)C4)n2)c(OC)c1)OCC` [Example 275, Diethyl (4-{[4-({7-[cis-4-(hydroxycarbamoyl)cyclohexyl]-2-methyl-3-oxo-2,3-dihydro-1H-isoindol-4-yl}amino)-5-(trifluoromethyl)pyrimidin-2-yl]amino}-3-methoxybenzyl)phosphonate], the IC50 in experiment [1] and in experiment [2] was less than 1000 nM each time.
As to `CCOP(=O)(Cc1ccc(Nc2ncc(C(F)(F)F)c(Nc3ccc([C@H]4CC[C@@H](C(=O)NOC)CC4)c4c3C(=O)N(C)C4)n2)c(OC)c1)OCC` [Example 276, Diethyl (3-methoxy-4-{[4-({7-[cis-4-(methoxycarbamoyl)cyclohexyl]-2-methyl-3-oxo-2,3-dihydro-1H-isoindol-4-yl}amino)-5-(trifluoromethyl)pyrimidin-2-yl]amino}benzyl)phosphonate], the IC50 in experiment [1] and in experiment [2] was less than 1000 nM each time.
With `CCOP(=O)(Cc1ccc(Nc2ncc(C(F)(F)F)c(Nc3ccc([C@H]4CC[C@](C)(C(=O)O)CC4)c4c3C(=O)N(C)C4)n2)c(OC)c1)OCC` [Example 282, trans-4-(7-{[2-({4-[(Diethoxyphosphoryl)methyl]-2-methoxyphenyl}amino)-5-(trifluoromethyl)pyrimidin-4-yl]amino}-2-methyl-1-oxo-2,3-dihydro-1H-isoindol-4-yl)-1-methylcyclohexanecarboxylic acid], the IC50 in experiment [1] and in experiment [2] was less than 1000 nM each time.
As to `CCOP(=O)(Cc1ccc(Nc2ncc(C(F)(F)F)c(Nc3ccc([C@H]4CC[C@@H](C#N)CC4)c4c3C(=O)N(C)C4)n2)c(OC)c1)OCC` [Example 283, Diethyl (4-{[4-{[7-(cis-4-cyanocyclohexyl)-2-methyl-3-oxo-2,3-dihydro-1H-isoindol-4-yl]amino}-5-(trifluoromethyl)pyrimidin-2-yl]amino}-3-methoxybenzyl)phosphonate], the IC50 in experiment [1] and in experiment [2] was less than 1000 nM in each case.
As to `CCOP(=O)(Cc1ccc(Nc2ncc(C(F)(F)F)c(Nc3ccc([C@H]4CC[C@@](C)(C(=O)O)CC4)c4c3C(=O)N(C)C4)n2)c(OC)c1)OCC` [Example 284, cis-4-(7-{[2-({4-[(Diethoxyphosphoryl)methyl]-2-methoxyphenyl}amino)-5-(trifluoromethyl)pyrimidin-4-yl]amino}-2-methyl-1-oxo-2,3-dihydro-1H-isoindol-4-yl)-1-methylcyclohexanecarboxylic acid], the half-maximal inhibitory concentration (IC50) in experiment [1] and in experiment [2] was less than 1000 nM throughout.
For `CCOP(=O)(Cc1ccc(Nc2ncc(C(F)(F)F)c(Nc3ccc([C@H]4CC[C@@](C(=O)O)(N(C)C)CC4)c4c3C(=O)N(C)C4)n2)c(OC)c1)OCC` [Example 285, cis-4-(7-{[2-({4-[(diethoxyphosphoryl)methyl]-2-methoxyphenyl}amino)-5-(trifluoromethyl)pyrimidin-4-yl]amino}-2-methyl-1-oxo-2,3-dihydro-1H-isoindol-4-yl)-1-(dimethylamino)cyclohexanecarboxylic acid], the concentration for half-maximal inhibition (IC50) in experiment [1] and in experiment [2] was less than 1000 nM in each case.
As to `CCOP(=O)(Cc1ccc(Nc2ncc(C(F)(F)F)c(Nc3ccc([C@H]4CC[C@H](O)CC4)c4c3C(=O)N(C)C4)n2)c(OC)n1)OCC` [Example 286, Diethyl [(5-{[4-{[7-(trans-4-hydroxycyclohexyl)-2-methyl-3-oxo-2,3-dihydro-1H-isoindol-4-yl]amino}-5-(trifluoromethyl)pyrimidin-2-yl]amino}-6-methoxypyridin-2-yl)methyl]phosphonate], the IC50 in experiment [1] and in experiment [2] was less than 1000 nM throughout.
With `CCOP(=O)(Cc1ccc(Nc2ncc(C(F)(F)F)c(Nc3ccc(N4CCNC(C(=O)O)C4)c4c3C(=O)N(C)C4)n2)c(OC)c1)OCC` (stereo not drawn) [Example 287, 4-(7-{[2-({4-[(Diethoxyphosphoryl)methyl]-2-methoxyphenyl}amino)-5-(trifluoromethyl)pyrimidin-4-yl]amino}-2-methyl-1-oxo-2,3-dihydro-1H-isoindol-4-yl)piperazine-2-carboxylic acid], the IC50 in experiment [1] is less than 1000 nM; in experiment [2], 1000 to 10000 nM.
For `CCOP(=O)(Cc1ccc(Nc2ncc(C(F)(F)F)c(Nc3ccc([C@H]4CC[C@H](OCOP(=O)(O)O)CC4)c4c3C(=O)N(C)C4)n2)c(OC)c1)OCC` [Example 288, {[trans-4-(7-{[2-({4-[(diethoxyphosphoryl)methyl]-2-methoxyphenyl}amino)-5-(trifluoromethyl)pyrimidin-4-yl]amino}-2-methyl-1-oxo-2,3-dihydro-1H-isoindol-4-yl)cyclohexyl]oxy}methyl phosphate], in that order: less than 1000 nM and less than 1000 nM.
For `CCOP(=O)(Cc1ccc(Nc2ncc(C(F)(F)F)c(Nc3ccc(-c4cnn(CCCO)c4)c4c3C(=O)N(C)C4)n2)c(OC)c1)OCC` [Example 289, Diethyl (4-{[4-({7-[1-(3-hydroxypropyl)-1H-pyrazol-4-yl]-2-methyl-3-oxo-2,3-dihydro-1H-isoindol-4-yl}amino)-5-(trifluoromethyl)pyrimidin-2-yl]amino}-3-methoxybenzyl)phosphonate], in that order: less than 1000 nM and less than 1000 nM.
For `CCOP(=O)(Cc1ccc(Nc2ncc(C(F)(F)F)c(Nc3cccc4c3c(=O)c(C)cn4C)n2)c(OC)c1)OCC` [Example 300, Diethyl [4-({4-[(1,3-dimethyl-4-oxo-1,4-dihydroquinolin-5-yl)amino]-5-(trifluoromethyl)pyrimidin-2-yl}amino)-3-methoxybenzyl]phosphonate], in that order: less than 1000 nM and less than 1000 nM.
On to `CCOC(=O)Cn1cc(C)c(=O)c2c(Nc3nc(Nc4ccc(CP(=O)(OCC)OCC)cc4OC)ncc3C(F)(F)F)cccc21` [Example 301], for which the IC50 in experiment [1] and in experiment [2] was less than 1000 nM throughout.
For the compound `CCOP(=O)(Cc1ccc(Nc2ncc(C(F)(F)F)c(Nc3cccc4c3c(=O)c(C)cn4CC(=O)O)n2)c(OC)c1)OCC` [Example 302], the IC50 in experiment [1] is less than 1000 nM; in experiment [2], 1000 to 10000 nM.
